Results: patent US9050278B2, “Scavenger of in vivo harmful reactive oxygen species and/or free radicals” (priority 2005, dated 2015)
Where two headings read alike, the source gives them in different places.

What was measured:
[1] = Elimination of nitrogen monoxide by hydrogen water; assay type: biochemical; details: neutral solution saturated with hydrogen molecules, room temperature
Description: First, 1 l of water was injected into a 5-l pressure-resistant bottle (manufactured by UNICONTROLS. CO., LTD.). […] After reaction at room temperature for 30 minutes, 1 μM 5-(and -6)-chloromethyl-2′,7′-dichlorodihydrofluorescein diacetate (DCFDH; manufactured by Molecular Probe, USA) was subsequently added thereto. The amount of NO remaining was measured with a fluorescence analyzer (manufactured by TECAN, Austria) at an excitation wavelength of 485 nm. […] After reaction at room temperature for 30 minutes, absorbance at 415, 400, and 340 nm, respectively, were measured with a spectrophotometer.

[2] = Elimination of hydrogen peroxide by hydrogen water; assay type: biochemical; details: neutral solution saturated with hydrogen molecules, room temperature
Description: (§1) First, 1 l of water was injected into a 5-l pressure-resistant bottle (manufactured by UNICONTROLS. CO., LTD.).
After reaction at room temperature for 30 minutes, 0.2 M phosphate buffer (pH 7.2) containing an equal amount of 20 μM DCFDA was subsequently added thereto. After reaction for 10 minutes, the amount of H2O2 remaining was measured with a fluorescence analyzer at an excitation wavelength of 485 nm.
(§2) After reaction at room temperature for 30 minutes, absorbance at 415, 400, and 340 nm, respectively, were measured with a spectrophotometer.

[3] = Elimination of superoxide by hydrogen water; assay type: biochemical; details: neutral solution saturated with hydrogen molecules, room temperature
Description: as §1
For superoxide (O2^−.), 25× Reaction Buffer, Xanthine Solution, and NBT Solution contained in […] […] Then, a Xanthine oxidase solution was added thereto to thereby generate O2^−.. NBT-diformazan accumulation was measured over time with a spectrophotometer at 550 nm.
as §2

cytochrome c = test: Reduction of cytochrome c in hydrogen water; assay type: biochemical; details: neutral solution saturated with hydrogen molecules, room temperature
Description: as §1, §2

[4] = Reduction of FAD in hydrogen water; assay type: biochemical; details: neutral solution saturated with hydrogen molecules, room temperature
Description: as §1, §2

[5] = Reduction of NAD+ in hydrogen water; assay type: biochemical; details: neutral solution saturated with hydrogen molecules, room temperature
Description: as §1, §2

[6] = room temperature, neutral conditions, without catalysts, HPF fluorescence
Text: RF-5300PC (manufactured by Shimadzu Corp.) was used in fluorescence intensity measurement.
The .OH was monitored with a spectrofluorometer.

PC12 cells [7] = test: Cell death induced by antimycin A, viable cell count; assay type: cell-based, Rat
Description: (§3) The cells were cultured with an incubator at 37° C. under 5% CO2.
(§4) The cells were cultured at 37° C. in a sealed state. […] The cells were cultured at 37° C.
(§5) After 24 hours, the number of viable cells having a pyramid-shaped cell form was counted under a phase contrast microscope.
(§6) PC12 cells were cultured in a collagen-coated 24-well cell culture dish (manufactured by IWAKI&Co. Ltd.). […] After 0, 1, 2, and 3 days, the number of viable cells having a pyramid-shaped cell form was counted under a phase contrast microscope.
(§7) Cell death was induced by antimycin A or menadione in the same way as in Examples 2 and 3. […] First, PC12 cells were cultured in a collagen-coated 24-well cell culture dish (manufactured by IWAKI&Co. Ltd.). […] After 24 hours, the number of viable cells having a pyramid-shaped cell form was counted under a phase contrast microscope.
as §5

PC12 cells [8] = test: Cell death induced by menadione, viable cell count; assay type: cell-based, Rat
Description: as §3, §4, §5, §6, §7

skeletal muscle = test system: skeletal muscle
Description: It has been known that strenuous exercise and the sudden stop of exercise generate free radicals and damage various tissues including muscles. […] Rats (Wister Rats, 8 week old, male) were run at a speed of 40 m/min. for 20 minutes. […] After 30 minutes, the rats were slaughtered. The skeletal muscle was excised. […] The method was conducted according to Sakai, Y., Iwamura, Y., Hayashi, J., Yamamoto, N., Ohkoshi, N., Nagata, H., Acute exercise causes mitochondrial DNA deletion in rat skeletal muscle., Muscle and Nerve 22: 256-261, 1999.

PC12 cells [9] = details: antimycin A 10 μg/ml, 0.6 mM hydrogen, 30 minutes
Description: (§8) To generate .OH via O2^−., antimycin A was added to cells. […] The cells were cultured at 37° C.
(§9) In .OH detection, HPF (0.4 μM) was added to a cell medium, and the fluorescence image thereof was observed using a confocal laser scanning microscope (FV300 manufactured by Olympus Corp.) at an excitation wavelength of 488 nm and an […] wavelength of 510 nm. MitoTracker Green (1 μM; Molecular Probes) and MitoTracker Red (100 nM; Molecular Probes) were used in the staining of mitochondria. Anti-HNE and anti-8-OH-G antibodies were purchased from Nikken Seil Co., Ltd. Moreover, anti-TUJ-1 and anti-GFAP antibodies were purchased from Babco and Immunon, respectively.

PC12 cells [10] = details: antimycin A 10 μg/ml, 0.6 mM hydrogen, 24 hours
Description: as §8, §9
The scale bars in FIGS. 16 and 18 denote 100 μm. Immunostaining intensities with anti-8-OH-G (FIG. 17) and anti-HNE (FIG. 19) antibodies were quantified using NIH Image software. […] Average values and standard deviations were determined from 4 independent experiments. *P<0.05, **P<0.01, ***P<0.001.

[11] = test system: cerebral ischemia-reperfusion injury
Description: In cerebral ischemia, diverse mechanisms generate reactive oxygen species, and .OH is detected after ischemia-reperfusion. Rats were rendered locally ischemic for 90 minutes by mild cerebral artery occlusion and subsequently reperfused for 30 minutes. […] FK506 (1 mg/kg of body weight) was administered into the blood once immediately before reperfusion. Edaravone (3 mg/kg of body weight) was administered into the blood twice immediately before reperfusion and immediately after reperfusion. After anesthesia, the rats were maintained at 20° C. under usual air. […] After 1 day of mild cerebral artery occlusion, the brain was sliced, and the slices were stained with 2,3,5-triphenyltetrazolium salt (TTC) capable of serving as a substrate in mitochondrial respiration process. After 1 week, the animals were put under anesthesia. Then, the brain was rapidly excised and fixed with 10% formalin. The paraffin-embedded brain was sliced into a thickness of 6 μm, and the slices were stained with hematoxylin-eosin. Moreover, VECSTAIN ABC Kit was used in staining with antibodies. Anti-Iba-I antibodies were purchased from Wako Pure Chemical Industries, Ltd. Image analysis software (Mac Scope ver. 2.55; Mitsuya Shoji) was used in slide analysis. All the animal experiments were conducted according to the guideline of the animal commission of Nippon Medical School.
An infarct volume was estimated by measuring visually white regions in the brain. […] For comparison, two compounds were further tested. […] The other compound was FK506, which is under clinical trial for cerebral infarction in USA. […] The brain infarct volume was calculated as a total sum of all the slices according to the equation: infarct area×thickness.
Rats were rendered locally ischemic for 90 minutes by mild cerebral artery occlusion and subsequently reperfused for 30 minutes. […] The brain was cut by coronal section into 6 slices after 1 day of mild cerebral artery occlusion, and the slices were stained with TTC.
The photographs of FIG. 28 are the staining images of 3 different slices obtained by this method. […] An average value of infarct volumes and standard deviation were determined from the values of 6 animals in each group. *P<0.05, **P<0.01, ***P<0.001.
The brain was fixed after 3 days or 7 days of mild cerebral artery occlusion and embedded in paraffin. The coronal sections of 6 μm in thickness were stained with anti-8-OH-G, anti-HNE, or anti-GFAP antibodies. The left photographs of FIGS. 31 to 33 show the same regions adjacent to occlusion in the temporal cortical regions. The scale bar denotes 100 μm.
In the staining experiment, the brain was fixed after 3 days or 7 days of mild cerebral artery occlusion and embedded in paraffin. The coronal sections were stained with each antibody. The photographs of FIG. 34 show the central regions of occlusion in the temporal cortical regions. The scale bar of FIG. 34 denotes 200 μm. The scale bar in the inserted photographs of FIG. 34 denotes 100 μm. In FIG. 35, an average value of the number of Iba-1-positive cells in a certain field and standard deviation were determined from 6 animals in each group. *P<0.05. […] Microglia accumulation serves as an indicator for a brain disorder.

[12] = neutral solution saturated with hydrogen molecules, room temperature
[13] = neutral solution saturated with hydrogen molecules, room temperature; remark: listed apart in the source
[14] = test system: ischemia-reperfusion injury in the liver; details: untreated 74
Description: Mice (C57BL/6 line, 5 week old, male) were put under general anesthesia by supplying mixed anesthetic gases (oxygen: 0.3 L/min., nitrous oxide: 0.7 L/min., Sevofrane (Maruishi Pharmaceutical Co., Ltd.): 3%) thereto with a small animal general anesthesia machine Soft Lander (Neuroscience Inc.). After anesthesia introduction, the anesthesia was maintained for a long time by supplying thereto a mixed anesthetic gas containing Sevofrane at a concentration reduced to 1.5% (oxygen: 0.3 L/min., laughing gas: 0.7 L/min., Sevofrane: 1.5%). Surgical skills (reference: Yadav, S. S. et al., Transplantation 65, 1433-1436 (1998)) shown below were used to prepare model animals with local ischemia-reperfusion injury in the liver. The model animals were examined by hematoxylin-eosin staining (H&E staining) for tissue degeneration in the ischemic liver and hepatic parenchymal cell death induced by ischemia-reperfusion injury.
The belly was opened in the middle thereof. Three canals, portal vein, hepatic artery, and bile duct, leading to the left robe of the liver were together blocked (ischemia start) with a micro-clamp (FD562; Aesculap, South San Francisco, Calif., USA). The belly was sutured with a silk thread. After 90 minutes, the belly was opened again by removing the silk thread used for suture, and the micro-clamp was removed (reperfusion start). The belly was sutured again with a silk thread. The left robe of the liver was reperfused for 3 hours under anesthesia. […] After reperfusion for 3 hours, the left robe of the liver (ischemic liver) was excised and cut into fine strip slices. The slices were fixed by dipping in 10% neutral buffered formalin solution (Wako Pure Chemical Industries, Ltd.).
The fixed ischemic liver slices were subjected to dehydration with ethyl alcohol, dehydrating agent removal with xylene, and paraffin infiltration in an automatic embedding apparatus (SAKURA, Tissue-Tek VIPS). The paraffin-embedded ischemic liver was cut into slices of 3 μm to 5 μm in thickness with a sledge microtome. The slices were attached to slide glass. […]

[15] = test system: cerebral cortex-derived primary cultured neuronal cells
Description: Rat cerebral cortex-derived primary cultured cells were used to induce oxidative stress under more physiological conditions.
Rat cerebral cortex-derived primary cultured neuronal cells were prepared from a 16-day-old fetus. The cerebral cortex was cut after meninges removal and digested with a protease mixed solution (SUMILON). The slices were mechanically dissociated with a pipette. Then, the cells were dispersed in a nerve cell culture medium (SUMILON) and seeded at a cell density of 5×10^4 cells/cm^2 in a plate coated with poly-L-lysine. The medium was replaced every three days by Neurobasal Medium (Gibco) containing B-27 (Gibco). The cells cultured for 11 days were used in the experiment. One day before the creation of an oxygen-glucose-deficient state, the medium was replaced by Neurobasal Medium (Gibco) containing B-27 minus AO (Gibco). […] 90% or more of the cells were neuronal cells.
To terminate the oxygen-glucose-deficient state, the medium was replaced again by the medium used before replacement. Culture was further continued at 37° C. in 95% air/5% carbon dioxide atmosphere.
After 10 minutes of the termination of the oxygen-glucose-deficient state, the amount of .OH was measured based on HPF fluorescence. […] To prepare a control, cells were treated with a DMEM medium containing glucose and oxygen, instead of being exposed to an oxygen-glucose-deficient state. […] An average value and standard deviation was determined from 4 independent experiments. **P<0.01.
After 1 day of oxygen-glucose deficiency, the viable neuronal cells were further detected by staining neuron-specific anti-TUJ-1 antibody. […] Average values and standard deviations shown in FIGS. 23 and 24 were determined from 4 independent experiments. ^#<0.0001 in FIG. 23, *P<0.05 in FIG. 24.

[16] = hydrogen pressure of 1 atm and room temperature; cited from earlier work
[17] = 2% hydrogen gas inhalation vs non-inhalation
[18] = brain fixed after 3 days or 7 days of occlusion

## [HH] [hydrogen molecules, hydrogen]
[1]
  reduction of nitrogen monoxide: do not reduce
[2]
  reduction of hydrogen peroxide: do not reduce
[3]
  reduction of O2^−.: do not reduce
Cytochrome c
  reduction of oxidized cytochrome c containing trivalent heme iron: does not reduce
[4]
  reduction of FAD: does not reduce
[5]
  reduction of NAD^+: does not reduce
[6]
  hydroxyl radicals (.OH) levels: reduce hydroxyl radicals (.OH) levels
PC12 cells [7]; antimycin A 30 μg/mL, 0, 1, 2 and 3 days
  durability of cell death inhibitory effects (time course): confirmed even on the 2nd day or later
PC12 cells [7]; antimycin A 30 μg/mL, 24 hours, approximately 1/16 of the saturated hydrogen concentration
  hydrogen concentration at which cell death could still be inhibited significantly: 50 µM
PC12 cells [8]; menadione 10 μM, 0, 1, 2 and 3 days
  durability of cell death inhibitory effects (time course): confirmed even on the 2nd day or later
Skeletal muscle; rats after exercise that ingested hydrogen (inhalation or intraperitoneal saline containing supersaturated hydrogen)
  deletion in mitochondrial DNA (PCR): reduced
Skeletal muscle; rats run 40 m/min. for 20 minutes, then air containing 10% hydrogen gas for 30 minutes
  damage in the muscular tissues (H&E staining): alleviate damage in the muscular tissues
PC12 cells [9]
  .OH levels (HPF fluorescence): reduced .OH levels
PC12 cells [10]
  accumulation of 4-hydroxy-2-nonenal (HNE): inhibition of accumulation
  oxidized guanine (8-OH-G) level: protected nuclear DNA from oxidation
[11]; [17]
  body temperature: improved
  body weight: improved
[11]; 2% hydrogen gas inhaled only during ischemia but not during reperfusion, 1 day
  brain infarct volume (TTC staining): not reduced
[11]; 1 day after occlusion, inhaled gas 0 to 4% (v/v) hydrogen
  most effective hydrogen concentration for reduction of infarct volume: 2%
[11]; 1 day after occlusion, inhaled hydrogen 0 to 4% (v/v) for 120 minutes in total
  brain infarct volume (TTC staining): Hydrogen concentration-dependent reductions in infarct volume were obviously observed
[11]; Edaravone 6 mg/kg of body weight, FK506 1 mg/kg of body weight
  alleviation of an oxidative disorder compared with Edaravone and FK506: more effective for the alleviation of an oxidative disorder than any of the other compounds tested
[11]; after 1 week of occlusion
  difference in infarct volume between hydrogen-treated and hydrogen-untreated group (hematoxylin-eosin): more significant after 1 week
[11]; [18]
  oxidation marker stainings (anti-8-OH-G, anti-HNE, anti-GFAP positive cells): significantly reduced
  staining with microglia-specific anti-Iba-I antibodies: significantly reduced
[12]
  reduction of Fe^3+: does not reduce
[13]
  reduction of Cu^2+: does not reduce
[14]; hydrogen gas flow rate 0.04 L/min., from 10 minutes before reperfusion start through whole reperfusion period (280 minutes in total)
  Degenerated region in liver tissues (%): 26%
[14]; hydrogen gas flow rate 0.1 L/min., from 5 minutes before reperfusion start to 5 minutes after reperfusion start (10 minutes in total)
  Degenerated region in liver tissues (%): 20%
[14]; hydrogen gas flow rate 0.2 L/min., from 5 minutes before reperfusion start to 5 minutes after reperfusion start (10 minutes in total)
  Degenerated region in liver tissues (%): 10%
[15]; 10 minutes after termination of 60 minutes oxygen-glucose-deficient state, 95% hydrogen/5% carbon dioxide vs nitrogen
  increase in the amount of .OH (HPF fluorescence): not observed in the presence of hydrogen
[15]; 1 day after oxygen-glucose deficiency, anti-TUJ-1 staining
  number of viable neuronal cells: increased the number of viable neuronal cells
[15]; 1 day after oxygen-glucose-deficient state
  viability of neuronal cells (cell count, modified MTT method): increased their viabilities
[16]
  amount of hydrogen that can be dissolved per L of water: approximately 17.5 mL per L

## Cc1c(C)c2c(c(C)c1O)CC[C@@](C)(CCC[C@H](C)CCC[C@H](C)CCCC(C)C)O2 [alpha-tocopherol, reference compound]
PC12 cells [7]; antimycin A 10 μg/mL, 24 hours, vs hydrogen-free medium, alpha-tocopherol 100 μM (Example 5)
  number of viable cells / inhibitory effects on cell death: observed, albeit weaker than those of hydrogen
PC12 cells [8]; menadione 3 μM, 24 hours, vs hydrogen-free medium, alpha-tocopherol 100 μM (Example 5)
  number of viable cells / inhibitory effects on cell death: significant effects on menadione were not observed
